Test results published in PubChem BioAssay (NCI).
≈ marks a conversion by molar mass, not a printed value.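 Protocol summary: plate cells (96-well), add compound at 5 concentrations, incubate 48 h, interpolate endpoints linearly. GI50 marks 50% less growth. TGI is the concentration that stops growth completely.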

Assays:
Assay in all cases: DTP human tumour cell line panel, 48 h
[1] = tested on: HOP-92 NSCLC
[2] = tested on: HCT-15 colon
[3] = tested on: NCI-H226 lung
[4] = tested on: MALME-3M melanoma
[5] = tested on: OVCAR-4 ovarian
[6] = tested on: RXF 393 renal
[7] = tested on: SR leukemia
[8] = tested on: LOX IMVI melanoma
[9] = tested on: ACHN renal
[10] = tested on: M14 melanoma

Compound | GI50 [1] | TGI [1] | GI50 [2] | TGI [2] | GI50 [3] | TGI [3] | GI50 [4] | TGI [4] | GI50 [5] | TGI [5] | GI50 [6] | TGI [6] | GI50 [7] | TGI [7] | GI50 [8] | TGI [8] | GI50 [9] | TGI [9] | TGI [10] | GI50 [10]
Clc1ccc(Nc2nc(Nc3ccccc3)nc(Nc3ccc(-c4cc(-c5ccc(Cl)cc5)on4)cc3)n2)cc1 | 1.93 µM | 20 µM | 14.1 µM | 84.8 µM | 38.8 µM | > 100 µM | 31.5 µM | 93 µM | 15.4 µM | > 100 µM | 11.3 µM | 37.6 µM | 26 µM | > 100 µM | 13.7 µM | > 100 µM | 21.9 µM | > 100 µM | – | –
Nc1nnc(CCC(=O)Nc2cc(Cl)ccc2Cl)n1N | – | > 100 µM | – | > 100 µM | – | > 100 µM | – | > 100 µM | – | > 100 µM | – | > 100 µM | – | > 100 µM | – | > 100 µM | – | > 100 µM | > 100 µM | –
O=C1C2Cc3c(n(C(=O)c4ccccc4)c4ccccc34)CC2C(=O)N1c1ccc(Nc2ccc(N3C(=O)C4Cc5c(n(C(=O)c6ccccc6)c6ccccc56)CC4C3=O)cc2)cc1 (configuration not stated) | – | > 100 µM | – | > 100 µM | – | > 100 µM | – | > 100 µM | – | > 100 µM | – | > 100 µM | – | > 100 µM | – | > 100 µM | – | > 100 µM | > 100 µM | –
CC1=CC(O)C(C(O)(C(F)(F)F)C(F)(F)F)C(C)(C)C1 (configuration not stated) | – | > 10 µM | – | > 10 µM | – | > 10 µM | – | > 10 µM | – | > 10 µM | – | > 10 µM | – | – | – | > 10 µM | – | > 10 µM | – | –
OCCCSCCO | – | > 100 µM | – | > 100 µM | – | > 100 µM | – | > 100 µM | – | > 100 µM | – | – | – | > 100 µM | – | > 100 µM | – | > 100 µM | > 100 µM | –
O=C(O)C(O)C(O)C(O)C(O)C(=O)O (configuration not stated) | – | > 100 µM | – | > 100 µM | – | > 100 µM | – | > 100 µM | – | > 100 µM | – | > 100 µM | – | > 100 µM | – | > 100 µM | – | > 100 µM | > 100 µM | –
CC1C(=O)c2cc3c(cc2CCN(C)Cc2c1ccc1c2OCO1)OCO3 (configuration not stated) | > 75 µg/mL | > 75 µg/mL | > 75 µg/mL | > 75 µg/mL | > 75 µg/mL | > 75 µg/mL | > 75 µg/mL | > 75 µg/mL | 44.4 µg/mL | > 75 µg/mL | 13.1 µg/mL | 68.3 µg/mL | 13.3 µg/mL | 40.9 µg/mL | 18.6 µg/mL | > 75 µg/mL | > 75 µg/mL | > 75 µg/mL | > 75 µg/mL | 43.6 µg/mL (≈ 119 µM)
Cc1cc2ccc(OC(=O)c3ccc(N=C(N)N)cc3)cc2oc1=O | – | > 100 µM | – | > 100 µM | – | 56.2 µM | – | 60.7 µM | – | 46.6 µM | – | > 100 µM | – | 58.4 µM | – | > 100 µM | – | > 100 µM | 97.7 µM | –
O=C1/C(=C/c2[nH]ncc2-c2ccc(Cl)cc2)C(=O)N(c2ccccc2)C1c1ccccc1 (configuration not stated) | – | 76 µM | – | 36.9 µM | – | 67.3 µM | – | 62.5 µM | – | 96.5 µM | – | 49.4 µM | – | 30 µM | – | 32.4 µM | – | 85.2 µM | 26 µM | –
O/C(=C\c1nc2ccccc2nc1/C=C(\O)c1ccc(F)cc1)c1ccc(F)cc1 | – | > 100 µM | – | > 100 µM | – | > 100 µM | – | > 100 µM | – | > 100 µM | – | > 100 µM | – | > 100 µM | – | > 100 µM | – | > 100 µM | > 100 µM | –
Nc1cc(S(=O)(=O)O)cc2ccc(S(=O)(=O)O)cc12 | – | > 100 µM | – | > 100 µM | – | – | – | > 100 µM | – | > 100 µM | – | > 100 µM | – | > 100 µM | – | > 100 µM | – | > 100 µM | > 100 µM | –
Cc1n[n+]([O-])c(C)cc1[N+](=O)[O-] | – | 34.3 µM | – | 29.3 µM | – | 60 µM | – | 35.3 µM | – | 33.5 µM | – | 66.3 µM | – | – | – | 57.9 µM | – | 30.2 µM | 30.7 µM | –
CC1(C(=O)O)C[C@](C)(C(=O)OCc2ccccc2)C[C@](C)(C(=O)OCc2ccccc2)C1 (some centres not stated) | – | 54 µM | – | 85.9 µM | – | > 100 µM | – | > 100 µM | – | > 100 µM | – | 56.4 µM | – | 83.7 µM | – | 92.4 µM | – | 57.5 µM | > 100 µM | –
O=C(Cc1csc2nc(-c3ccc(Cl)cc3)cn12)N/N=C/c1ccccc1O | 3.39 µM | 32.4 µM | 0.468 µM | > 100 µM | 4.65 µM | > 100 µM | 5.56 µM | 94.2 µM | 1.5 µM | > 100 µM | 2.69 µM | 39.8 µM | 0.603 µM | > 100 µM | 1.93 µM | 36.1 µM | 1.77 µM | > 100 µM | – | –
O=S(=O)(O)c1ccc2c(N=Nc3ccc(N=Nc4ccccc4)cc3)c(O)c(S(=O)(=O)O)cc2c1 | – | > 100 µM | – | > 100 µM | – | > 100 µM | – | > 100 µM | – | > 100 µM | – | > 100 µM | – | > 100 µM | – | – | – | > 100 µM | > 100 µM | –
N=c1ccc2nc(N)nn(O)c-2c1 | – | – | – | > 100 µM | – | > 100 µM | – | – | – | > 100 µM | – | – | – | > 100 µM | – | > 100 µM | – | > 100 µM | > 100 µM | –
